Where a name gives a salt, the structure may show the parent alone. Read-outs that look alike come from different tables or passages of the source.
How the values were obtained:
[1] = tested on: human hepatoma cell line Huh7; experiment: Cytotoxicity in Huh7 cells (ATPLite); type: cell-based; settings: 96 h incubation, read-out: CC50, nM (gT1b)
Experimental: (§1) Cytotoxicity of the disclosed azoles was tested in experiments in the human hepatoma cell line Huh7. The amount of living cells was determined with the help of ATPLite kit (Perkin Elmer, Boston, USA) in accordance with manufacturer instructions. Cytotoxic action was estimated by seeding the cells into black microplate with transparent bottom (96 wells, 10^4 cells to each well). Three independent repeatings were used for each bis-azole. The tested bis-azoles were added in 18 h, after that the cells were incubated together with the compounds for 96 h. Each well was washed two times with phosphate buffered saline (0.2 ml/well) and then the cells were lysed by addition of cell buffer (50 μl/well) (all mentioned reagents are included in ATPLite kit). The microplate was incubated for 5 min on a rotating platform at 600 r/min, after that 50 μl of substrate solution (a part of ATPLite kit) was added into each well. The microplate was incubated for additional 5 min on a rotating platform at 600 r/min, kept for 10 min in the dark, after that luminescence was measured using TopCount NXT instrument (Packard, Perkin Elmer).
(§2) CC50 Value corresponding to bis-azole concentration at which 50% of cells were ruined was used as quantitative characteristic for cytotoxicity estimation. Calculation of CC50 value: for calculation of inhibition effectiveness (% Inh) the following equation was used: % Inh=[(L^pos−L^ex)/L^pos−L^neg)]*100%, where L^pos—positive control, luminescence in the wells with cells without compounds; L^neg—negative control, luminescence in the wells with medium without cells; L^ex—luminescence in wells with a compound of definite concentration. Then, CC50 values were calculated with the help of XLfit 4 program. Test results for novel azoles of the general formula 1 testify their high (nanomolar) or very high (picomolar) activity.

[2] = tested on: subgenomic RNA-replicon HCV (genotype 1b (gT1b), don Con1); experiment: Antiviral activity in Huh7 HCV subgenomic replicon cells, immunoenzymatic assay (IEA); type: cell-based, hepatitis C virus; settings: Huh7 cells with HCV gT1b replicon, 3 days incubation
Experimental: Antiviral activity of substituted azoles of the general formula 1 was determined in the human hepatoma cell line Huh7, comprising subgenomic RNA-replicon HCV (genotype 1b (gT1b), don Con1). A version of immumoenzymatic assay (IEA) on viral protein NS5A in 96-well plate was used as an experimental method. Cytotoxicity of the compounds was estimated in parallel regime. Cells Huh7 were seeded in 96-well plate (7.5×10^3 cells to each well in 100 μl of culture medium). Solutions of the tested compounds in DMEM medium {DMEM) 1×; Source: Cellgro; Catalogue: 10-013-CV} were prepared immediately before use. Eleven serial three fold dilutions with variation of concentrations from 20 nM to 0.2 pM were prepared. In 4 hours after seeding, serial dilutions of the compounds were added to the cells (100 μl to each well). Final concentration of tested compounds was varied from 10 nM to 0.1 pM, and DMSO—0.5%. If it was necessary, higher concentrations of the disclosed azoles were investigated. Each dilution of the compound was tested on two identical wells. Then the cells were incubated for three days at 37° C./5% CO2 and fixed by addition of acetone/methanol (1:1) mixture in amount of 250 μl/well. In 1 min the cells were washed 3 times with PBS (Phosphate Buffered Saline) solution. Then the cells were blocked by addition of 10% fetal calf serum in PBS solution in amount of 150 μl/well for 1 h at room temperature. Then, the cells were incubated with mouse monoclonal antibodies to cor-antigen HCV, don C7-50 (Source: Affinity BioReagents; Catalogue: MA1-080) (100 μl/well, working dilution—1:500 in 10% fetal calf serum in PBS solution) for 2 h at 37° C. The cells were washed 6 times with PBS/0.05% Tween 20 solution, then, they were incubated for 1 h with goat anti-mouse immunoglobulin antibodies (conjugated with horseradish peroxidase, 100 μl/well, working dilution—1:2500 in 10% fetal calf serum in PBS solution). The cells were washed 6 times with PBS/0.05% Tween 20 solution, once with PBS solution, after that substrate (1 tablet of o-phenylenediamine (oPD)+12 ml citrate/phosphate buffer+5 μl 30% H2O2) in amount of 100 μl/well was added. The plates were kept for 30 min in the dark at room temperature. The reaction was arrested by the addition of 2N H2SO4 in amount of 100 μl/well, and optical density (wavelength 490 nm) was measured by means of multiscan plate reader Victor3 V 1420 (Perkin Elmer). IC50 values (azole concentration, lowering the level of virus RNA-replicon on 50%) for every tested azole were calculated with the help of XLfit 4 program.

[3] = Cytotoxicity in Huh7 cells (ATPLite); type: cell-based, human; settings: human, Huh7 cells (human hepatoma cell line), 96 h incubation, read-out: CC50, nM (gT1b)
Experimental: as §1, §2

Row | Compound | CC50 [1] [nM] | IC50 [2] [nM] | CC50 at 96 h [3] [nM] | IC50 ([2]; Hepatitis C virus, Huh-7, 72 h) [nM] | further results
1 | COC(=O)N[C@H](C(=O)N1CCC[C@H]1c1ncc(C#CC#Cc2ccc(-c3cnc([C@@H]4CCCN4C(=O)[C@@H](NC(=O)OC)C(C)C)[nH]3)cc2)[nH]1)C(C)C [1.1•2HCl, [(1S)-1-[[(2S)-2-[5-[4-[4-[2-[(2S)-1-[(2S)-2-[(Methoxycarbonyl)amino]-3-methyl-1-oxobutyl]-2-pyrrolidinyl]-1H-imidazol-5-yl]-1,3-butadiynyl]phenyl]-1H-imidazol-2-yl]-1-pyrrolidinyl]carbonyl]-2-methylpropyl]-carbamic acid methyl ester dihydrochloride] |  |  |  |  | CC50 ([1]; dihydrochloride): 85100 nM; IC50 ([2]; dihydrochloride): 0.0034 nM
2 | COC(=O)N[C@H](C(=O)N1CCC[C@H]1c1ncc(-c2ccc(C#CC#Cc3cnc([C@@H]4CCCN4C(=O)[C@@H](NC(=O)OC)C(C)C)[nH]3)cc2)[nH]1)c1ccccc1 [1.3•2HCl, Methyl (5)-[(S)-2-(5-{4-[4-(2-{(S)-1-[(S)-2-(methoxycarbonylamino)-3-methylbutanoyl]pyrrolidin-2-yl}-3H-imidazol-4-yl)buta-1,3-diynyl]phenyl}-1H-imidazol-2-yl)pyrrolidin-1-yl]-2-oxo-1-phenylethylcarbamate dihydrochloride] | > 10000 | 0.0054 |  |  | 
3 | COC(=O)N[C@H](C(=O)N1CCC[C@H]1c1ncc(C#CC#Cc2ccc3cc(-c4cnc([C@@H]5CCCN5C(=O)[C@@H](NC(=O)OC)C(C)C)[nH]4)ccc3c2)[nH]1)C(C)C [1.6•2HCl, Methyl [(S)-1-((S)-2-{5-[2-(4-{2-[(S)-1-((S)-2-methoxycarbonylamino-3-methyl-butyryl)-pyrrolidin-2-yl]-3H-imidazol-4-yl}-buta-1,3-diynyl)-naphthalen-6-yl]-1H-imidazol-2-yl}-pyrrolidine-1-carbonyl)-2-methyl-propyl]-carbamate dihydrochloride] |  |  | > 10000 | 0.0046 | 
4 | COC(=O)N[C@H](C(=O)N1CCC[C@H]1c1ncc(C#CC#Cc2cccc3c(-c4cnc([C@@H]5CCCN5C(=O)[C@@H](NC(=O)OC)C(C)C)[nH]4)cccc23)[nH]1)C(C)C [1.7•2HCl, Methyl [(S)-1-((S)-2-{5-[5-(4-{2-[(S)-1-((S)-2-methoxycarbonylamino-3-methyl-butyryl)-pyrrolidin-2-yl]-3H-imidazol-4-yl}-buta-1,3-diynyl)-naphthalen-1-yl]-1H-imidazol-2-yl}-pyrrolidine-1-carbonyl)-2-methyl-propyl]-carbamate dihydrochloride] |  |  | > 10000 | 0.0036 | 
5 | COC(=O)N[C@H](C(=O)N1CCC[C@H]1c1ncc(C#CC#Cc2ccc(-c3cnc([C@@H]4CCCN4C(=O)[C@@H](NC(=O)OC)C(C)C)[nH]3)c3ccccc23)[nH]1)C(C)C [1.8•2HCl, Methyl [(S)-1-((S)-2-{5-[4-(4-{2-[(S)-1-((S)-2-methoxycarbonylamino-3-methyl-butyryl)-pyrrolidin-2-yl]-3H-imidazol-4-yl}-buta-1,3-diynyl)-naphthalen-1-yl]-1H-imidazol-2-yl}-pyrrolidine-1-carbonyl)-2-methyl-propyl]-carbamate dihydrochloride] |  |  | > 10000 | 0.0048 | 
6 | COC(=O)N[C@H](C(=O)N1CCC[C@H]1c1nc(C#CC#Cc2ccc(-c3c[nH]c([C@@H]4CCCN4C(=O)[C@@H](NC(=O)OC)C(C)C)n3)s2)c[nH]1)C(C)C [1.9•2HCl, [(S)-1-((S)-2-{4-[4-(5-{2-[(S)-1-((S)-2-Methoxycarbonylamino-3-methyl-butyryl)-pyrrolidin-2-yl]-1H-imidazol-4-yl}-thiophen-2-yl)-buta-1,3-diynyl]-1H-imidazol-2-yl}-pyrrolidine-1-carbonyl)-2-methyl-propyl]-carbamic acid methyl ester dihydrochloride] |  |  | > 10000 | 0.0032 | 
7 | COC(=O)N[C@H](C(=O)N1CCC[C@H]1c1ncc(C#CC#Cc2csc3c(-c4cnc([C@@H]5CCCN5C(=O)[C@@H](NC(=O)OC)C(C)C)[nH]4)csc23)[nH]1)C(C)C [1.10•2HCl, Methyl [(S)-1-((S)-2-{5-[6-(4-{2-[(S)-1-((S)-2-Methoxycarbonylamino-3-methyl-butyryl)-pyrrolidin-2-yl]-3H-imidazol-4-yl}-buta-1,3-diynyl)-thieno[3,2-b]thiophen-3-yl]-1H-imidazol-2-yl}-pyrrolidine-1-carbonyl)-2-methyl-propyl]-carbamate dihydrochloride] |  |  | > 10000 | 0.002 | 
8 | COC(=O)N[C@H](C(=O)N1CCC[C@H]1c1ncc(C#CC#Cc2ccc(-c3cnc([C@@H]4CCCN4C(=O)[C@@H](NC(=O)OC)C(C)C)[nH]3)cc2)[nH]1)C(C)C [Compound 1.1, [(1S)-1-[[(2S)-2-[5-[4-[4-[2-[(2S)-1-[(2S)-2-[(methoxycarbonyl)amino]-3-methyl-1-oxobutyl]-2-pyrrolidinyl]-1H-imidazol-5-yl]-1,3-butadiynyl]phenyl]-1H-imidazol-2-yl]-1-pyrrolidinyl]carbonyl]-2-methylpropyl]-carbamic acid methyl ester] | > 10000 |  |  | 0.0031 | 
9 | Methyl (R)-[(S)-2-(5-{4-[4-(2-{(S)-1-[(S)-2-(methoxycarbonylamino)-3-methylbutanoyl]pyrrolidin-2-yl}-3H-imidazol-4-yl)buta-1,3-diynyl]phenyl}-1H-imidazol-2-yl)pyrrolidin-1-yl]-2-oxo-1-phenylethylcarbamate dihydrochloride [1.4•2HCl] | > 10000 | 0.0018 |  |  | 
10 | Methyl (S)-[(S)-2-(5-{4-[4-(2-{(S)-1-[(S)-2-(methoxycarbonylamino)-3-methylbutanoyl]pyrrolidin-2-yl}-3H-imidazol-4-yl)buta-1,3-diynyl]phenyl}-1H-imidazol-2-yl)pyrrolidin-1-yl]-2-oxo-1-phenylethylcarbamate dihydrochloride [1.5•2HCl] | > 10000 | 0.0082 |  |  | 
